One data set has as its system HESCs (H1, BGN1). Briefly: Feeder-free culture of HESCs, undifferentiated morphology. The data set is classed as cell-based, human. As to conditions: for morphology / undifferentiated phenotype of HESCs: feeder-free, non-conditioned medium, 6-bromoindirubin-3′-oxime and Me analogue 2 μM, LiCl 5 mM, Wnt3a protein. The protocol: (§1) Cell culture. Human embryonic stem cells (HESCs) lines were provided by WiCell Research Institute (H1 line)^5 and BresaGen Inc. (BGN1 and BGN2 lines). H1 cells were cultivated on irradiated mouse embryonic fibroblasts (MEFs) in medium consisting of 80% DMEM/F12 medium, 20% knockout serum replacement (KSR), 1 mM L-glutamine, 1% non-essential amino acids, 0.1 mM β-mercaptoethanol, and 4 ng/ml basic FGF (all from Invitrogen). […] Subsequently, HESCs were cultured on Matrigel (BD biosciences) in medium conditioned by MEFs, and passaged several times until colonies became free from contaminating MEFs as described before^9.

The test system of data set [1] is Rex-1 promoter. Kind of data set: Rex-1 YFP reporter line CJRex-Y (imaging / FACS). The data set is classed as cell-based, mouse. As to conditions: CJRex-Y cells, 5 d. The protocol: Generation of stable mouse ES lines. CJ7 ES cells were transfected with pRex-1-Venus, pTY or pCAG-HygEGFP by using Lipofectamine 2000 (Invitrogen) followed by G418 (Invitrogen) selection at 200 μg/ml (for CJRex-Y or CJ-TY) or hygromycine (Invitrogen) selection at 600 μg/ml (for CJ-GFP). Two weeks after the drug selection, a number of single colonies were picked up, expanded and used for the further analyses.
FACS analysis of MESCs. We cultured CJRex-Y cells at a low density (500 cells/cm^2) on gelatin-coated 10 cm dishes in mouse ES cell medium alone, medium containing LIF, medium conditioned from wild type L cells or medium conditioned from Wnt3a-L cells (ATCC) for 5 days. The Wnt3a conditioned medium was prepared according to the provider's protocol. Cells were harvested, resuspended in mouse ES medium and subjected to FACS analysis using FACSVantage SE system (BD Biosciences).

The subject of data set [2] is canonical Wnt pathway (TCF binding sites, TopFlash). Kind of data set: TopFlash/FopFlash luciferase reporter assay in CJ7 cells (MESCs). Particulars: CJ7 cells (MESCs); FIG. 2b. Format: cell-based, mouse. As for the experimental part:
(§2) Luciferase assay. […] Test compounds were added 24 hrs after transfection. Following incubation for 24 hrs, cells were harvested, and analyzed by the dual luciferase reporter assay system (Promega) using Lumat (Berthold Technologies). Each value was standardized by Renilla luciferase activity.
The canonical Wnt signal occurs through binding of the Wnt protein to the Frizzled receptor at cell surface. It is followed by inactivation of GSK-3, leading to accumulation of β-catenin in the nucleus that activates the transcription of Wnt target genes in collaboration with TCFs^18,19. Alternatively, Wnt signaling can be activated by direct, intracellular inhibition of the GSK-3 function using specific inhibitors^20. […] First we examined whether mouse and human ESCs were capable of transducing Wnt signaling under the influence of 6-bromoindirubin-3′-oxime. […] We then evaluated expression of β-catenin at the cellular level as a read-out of the activation status of the canonical Wnt pathway in HESCs.

In another data set the test system is GSK-3. As to conditions: from reference 10; cited from earlier work.
For a further data set, the system named is β-catenin. Kind of data set: β-catenin immunofluorescence confocal analysis in HESCs. Format: cell-based, human. As to conditions: compared to non-conditioned medium treated cells, FIG. 2c. As for the experimental part: as §1
Immunofluorescence. […] For the quantitative image analysis, fluorescent images from triplicate samples were taken by the Discovery1 system (Universal Imaging Corporation). The fluorescent objects were selected by the threshold function and evaluated in five regions of each well by quantification of pixel intensities and the object size by using MetaMorph software (Universal Imaging Corporation).

The next data set has as its system CJ-GFP cells (MESCs). Kind of data set: Low-density culture of CJ-GFP MESCs without LIF, morphology. Format: cell-based, mouse. As to conditions: 1 μM; 7 d plus 5 d at low density; data not shown for Me analogue. The protocol:
Teratoma formation. We grew CJ-GFP cells at a low density (500 cells/cm^2) on gelatin-coated 10 cm dishes in medium containing 6-bromoindirubin-3′-oxime 1 μM for 7 d, then passaged cells at the same density and cultured under the same condition another 5 d to further enforce differentiation of cells.

The test system of another data set is Oct-3/4. Briefly: Oct-3/4 immunocytochemistry in HESCs. Particulars: HESCs in non-conditioned medium; FIG. 4c. Format: cell-based, human. As for the experimental part:
as §1
Immunofluorescence. Cells were fixed in 4% paraformaldehyde for 20 min at room temperature and incubated overnight at 4° C. with primary antibodies against Oct-4 (BD Biosciences), β-catenin (BD Biosciences), Tuj-1 (BAbCO), cytokeratin (Sigma), glial fibrillary acidic protein, GFAP, (Dako), smooth muscle actin (Research Diagnostics Inc), α-fetoprotein (α-FP, Cell Sciences) and Tromal (Developmental Studies Hybridoma Bank). For nuclear localization analysis, the fixed samples were subjected to fluorescent digital confocal imaging analysis using a Zeiss LSM 510 confocal microscope (Carl Zeiss). For mouse embryonic tissue sections, mid gestation embryos were fixed in 4% paraformaldehyde followed by paraffin embedding and tissue sectioning. After deparaffinization, tissue sections were incubated with a GFP-specific antibody (Molecular Probe) at 4° C. overnight. Antigens were localized by using goat anti-mouse IgG conjugated to Cy3 or goat anti-rabbit IgG conjugated to Cy2 (Zymed laboratories). For the quantitative image analysis, fluorescent images from triplicate samples were taken by the Discovery1 system (Universal Imaging Corporation). The fluorescent objects were selected by the threshold function and evaluated in five regions of each well by quantification of pixel intensities and the object size by using MetaMorph software (Universal Imaging Corporation).

Data set [3] relates to Rex-1 promoter. Briefly: Rex-1 luciferase reporter assay in CJ7 cells. Particulars: CJ7 cells; compared to LIF-treated cells. Format: cell-based, mouse.
Text: Nat Biotechnol 20, 87-90), a small fragment containing the TCF binding sites and the cFos promoter in pTopFlash was excised by XbaI digestion, and cloned into pcDNA3-Venus in which Venus was introduced into the multiple cloning site between BamHI and EcoRI of the pcDNA3 vector (Invitrogen) whose CMV promoter was eliminated by BglII and HindIII digestion. […] To generate the Rex-1-Venus reporter construct, the Rex-1 promoter region was cloned into pcDNA3-Venus.
as §2
For orientation: In a reporter assay the amount or activity of a reporter protein is the signal.

In another data set the test system is cyclin D1. Kind of data set: cyclin D1 immunofluorescence in HESCs. The data set is classed as cell-based, human. As to conditions: HESCs (BGN2); non-CM; 6-bromoindirubin-3′-oxime 1.0 μM or Wnt3a protein 100 ng; FIG. 7. The protocol: Immunofluorescence. HESCs were grown in conditioned medium (CM), non-CM, non-CM containing Me 6-bromoindirubin-3′-oxime (1.0 μM), non-CM containing 6-bromoindirubin-3′-oxime (1.0 μM) or non-CM containing recombinant mouse Wnt3a protein (100 ng/ml, R&D systems) for 5 d. Cells were fixed in 4% paraformaldehyde for 20 min at room temperature and incubated overnight at 4° C. with primary antibodies against cyclin D1 (Santa Cruz Technology, Santa Cruz, Calif.). Antigens were localized by using goat anti-rabbit IgG conjugated to Cy3 (Zymed laboratories).

For `[Cl-].[Li+]` [LiCl, reference compound], in the data set on HESCs (H1, BGN1) (10 mM, FIG. 4c), the “toxicity to HESCs” value is listed as “substantial toxicity”. Besides, the “morphology / undifferentiated phenotype of HESCs” value with HESCs (H1, BGN1) (7 d) is reported as “failed to maintain the undifferentiated phenotype”.

Consider `CN1C(=O)C(=C2Nc3ccccc3C2=NO)c2ccc(Br)cc21` [Me 6-bromoindirubin-3′-oxime, 1-methyl-6-bromoindirubin-3′-oxime, reference compound], for which, in the data set with Rex-1 promoter [1] (FIG. 3b), the “colony morphology / cell shape” value is “flattened cell shape”. The “Rex-1 transcriptional (YFP reporter) activity” value in the data set on Rex-1 promoter [1] (absence of LIF) is “substantially lower activity”. For the same molecule, the TopFlash reporter activity result in [2] is recorded as “did not show any change in activity”. In addition, the “GSK-3 / kinase inhibition” value with GSK-3 was “kinase-inactive”. Further, the “morphology / undifferentiated phenotype of HESCs” value with HESCs (H1, BGN1) (7 d) is recorded as “fully flattened morphology”. The “nuclear accumulation of β-catenin” value with β-catenin is listed as “did not show obvious difference”. The “colony morphology of MESCs without LIF” value with CJ-GFP cells (MESCs) is “large flat differentiated morphology”. For the same molecule, the “Oct-3/4 expression at the cellular level” value in the data set on Oct-3/4 is reported as “remarkable reduction of Oct-3/4 expression”. For the same molecule, the Rex-1 promoter activity entry in the data set on Rex-1 promoter [3] is listed as “slightly reduced”.

For Human-derived LIF: Human-derived LIF, the “prevention of HESC differentiation in non-conditioned medium” value in the data set with HESCs (H1, BGN1) (LIF up to 2,000 to 3,000 U/ml, 7 d) is given as “failed to prevent the differentiation”.

For Wnt3a, in the data set with cyclin D1, the “cyclin D1 expression” value is reported as “up-regulated cyclin D1 expression”. The “morphology / undifferentiated phenotype of HESCs” value with HESCs (H1, BGN1) (7 d) was “maintain compact undifferentiated colonies”. In addition, the “Oct-3/4 expression at the cellular level” value in the data set on Oct-3/4 is recorded as “high level of Oct-3/4 expression”.
